From patent US6624159B2, “Heterocycle carboxamides as antiviral agents” (Pharmacia & Upjohn Company, priority 2000, dated 2003)
Where a name gives a salt, the structure may show the parent alone.

Columns and labels:
HCMV polymerase = target: T1, HCMV polymerase (Human cytomegalovirus, UniProt P08546); assay: HCMV polymerase scintillation proximity assay (modified version); format: biochemical; settings: for IC50: modified SPA assay, compounds diluted in 100% DMSO, 4.5 mM DTT
T1 construct: made in house; host or cells: recombinant baculovirus-infected SF-9 cells
Experimental: (§1) The HCMV polymerase assay is performed using a scintillation proximity assay (SPA) as described in several references, such as N. D. Cook, et al., Pharmaceutical Manufacturing International, pages 49-53 (1992); K. Takeuchi, Laboratory Practice, September issue (1992); U.S. Pat. No. 4,568,649 (1986); which are incorporated by reference herein. Reactions are performed in 96-well plates. The assay is conducted in 100 μl volume with 5.4 mM HEPES (pH 7.5), 11.7 mM KCl, 4.5 mM MgCl2, 0.36 mg/ml BSA, and 90 nM ^3H-dTTP. Assays are run with and without CHAPS, (3-[(3-Cholamidopropyl)-dimethylammonio]-1-propane-sulfonate) at a final concentration of 2 mM. HCMV polymerase is diluted in enzyme dilution buffer containing 50% glycerol, 250 mM NaCl, 10 mM HEPES (pH 7.5), 100 μg/ml BSA, and 0.01% sodium azide. The HCMV polymerase, which is expressed in recombinant baculovirus-infected SF-9 cells and purified according to literature procedures, is added at 10% (or 10 μl) of the final reaction volume, i.e., 100 μl. Compounds are diluted in 50% DMSO and 10 μl are added to each well. Control wells contain an equivalent concentration of DMSO. Unless noted otherwise, reactions are initiated via the addition of 6 nM biotinylated poly(dA)-oligo(dT) template/primer to reaction mixtures containing the enzyme, substrate, and compounds of interest. Plates are incubated in a 25° C. or 37° C. H2O bath and terminated via the addition of 40 μl/reaction of 0.5 M EDTA (pH 8) per well. Reactions are terminated within the time-frame during which substrate incorporation is linear and varied depending upon the enzyme and conditions used, i.e., 30 min. for HCMV polymerase. Ten μl of streptavidin-SPA beads (20 mg/ml in PBS/10% glycerol) are added following termination of the reaction. Plates are incubated 10 min. at 37° C., then equilibrated to room temperature, and counted on a Packard Topcount. Linear regressions are performed and IC50's are calculated using computer software.
(§2) A modified version of the above HCMV polymerase assay is performed as described above, but with the following changes: Compounds are diluted in 100% DMSO until final dilution into assay buffer. In the previous assay, compounds are diluted in 50% DMSO. 4.5 mM dithiothreitol (DTT) is added to the polymerase buffer.

HSV polymerase = HSV polymerase (Human herpesvirus 1, UniProt P04293); assay: HSV polymerase assay (Table 1); format: biochemical
VZV polymerase = VZV polymerase (Varicella-zoster virus, UniProt P09252); assay: VZV polymerase assay (Table 1); format: biochemical
Experimental: [The source words this procedure for another target and says it was used here with some conditions changed.] as §1, §2

T1 sequence (P08546 whole entry): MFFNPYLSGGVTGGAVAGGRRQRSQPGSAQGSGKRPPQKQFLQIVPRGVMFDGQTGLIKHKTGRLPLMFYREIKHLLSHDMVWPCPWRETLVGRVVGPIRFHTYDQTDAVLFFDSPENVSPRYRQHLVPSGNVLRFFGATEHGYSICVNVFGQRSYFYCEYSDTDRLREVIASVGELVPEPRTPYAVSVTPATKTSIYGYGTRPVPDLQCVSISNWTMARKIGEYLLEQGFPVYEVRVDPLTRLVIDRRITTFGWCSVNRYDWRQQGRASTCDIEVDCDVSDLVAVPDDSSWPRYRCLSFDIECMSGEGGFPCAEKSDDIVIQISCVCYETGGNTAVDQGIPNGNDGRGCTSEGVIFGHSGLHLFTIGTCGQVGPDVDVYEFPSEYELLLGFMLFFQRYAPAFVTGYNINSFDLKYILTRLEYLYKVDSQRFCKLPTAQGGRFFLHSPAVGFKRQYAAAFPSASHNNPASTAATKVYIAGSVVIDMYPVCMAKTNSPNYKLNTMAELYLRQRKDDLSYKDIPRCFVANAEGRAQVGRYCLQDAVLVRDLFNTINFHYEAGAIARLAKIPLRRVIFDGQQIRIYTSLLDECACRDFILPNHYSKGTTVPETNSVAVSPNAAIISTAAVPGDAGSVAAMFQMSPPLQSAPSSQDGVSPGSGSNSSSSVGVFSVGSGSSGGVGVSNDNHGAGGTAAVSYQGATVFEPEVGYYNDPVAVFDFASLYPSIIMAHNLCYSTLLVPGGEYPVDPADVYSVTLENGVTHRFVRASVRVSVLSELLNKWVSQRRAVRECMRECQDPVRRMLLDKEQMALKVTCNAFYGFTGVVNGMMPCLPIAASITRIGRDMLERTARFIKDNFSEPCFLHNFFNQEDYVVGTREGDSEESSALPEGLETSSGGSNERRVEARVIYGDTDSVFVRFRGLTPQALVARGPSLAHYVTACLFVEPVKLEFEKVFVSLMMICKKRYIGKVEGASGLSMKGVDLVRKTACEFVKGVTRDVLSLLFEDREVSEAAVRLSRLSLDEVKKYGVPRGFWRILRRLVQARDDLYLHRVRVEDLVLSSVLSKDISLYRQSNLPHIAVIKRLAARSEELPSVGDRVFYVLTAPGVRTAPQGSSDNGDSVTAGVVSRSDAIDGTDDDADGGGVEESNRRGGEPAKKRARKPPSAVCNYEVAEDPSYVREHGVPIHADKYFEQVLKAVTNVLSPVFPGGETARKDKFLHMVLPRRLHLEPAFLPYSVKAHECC
HSV polymerase, sequence (P04293 whole entry): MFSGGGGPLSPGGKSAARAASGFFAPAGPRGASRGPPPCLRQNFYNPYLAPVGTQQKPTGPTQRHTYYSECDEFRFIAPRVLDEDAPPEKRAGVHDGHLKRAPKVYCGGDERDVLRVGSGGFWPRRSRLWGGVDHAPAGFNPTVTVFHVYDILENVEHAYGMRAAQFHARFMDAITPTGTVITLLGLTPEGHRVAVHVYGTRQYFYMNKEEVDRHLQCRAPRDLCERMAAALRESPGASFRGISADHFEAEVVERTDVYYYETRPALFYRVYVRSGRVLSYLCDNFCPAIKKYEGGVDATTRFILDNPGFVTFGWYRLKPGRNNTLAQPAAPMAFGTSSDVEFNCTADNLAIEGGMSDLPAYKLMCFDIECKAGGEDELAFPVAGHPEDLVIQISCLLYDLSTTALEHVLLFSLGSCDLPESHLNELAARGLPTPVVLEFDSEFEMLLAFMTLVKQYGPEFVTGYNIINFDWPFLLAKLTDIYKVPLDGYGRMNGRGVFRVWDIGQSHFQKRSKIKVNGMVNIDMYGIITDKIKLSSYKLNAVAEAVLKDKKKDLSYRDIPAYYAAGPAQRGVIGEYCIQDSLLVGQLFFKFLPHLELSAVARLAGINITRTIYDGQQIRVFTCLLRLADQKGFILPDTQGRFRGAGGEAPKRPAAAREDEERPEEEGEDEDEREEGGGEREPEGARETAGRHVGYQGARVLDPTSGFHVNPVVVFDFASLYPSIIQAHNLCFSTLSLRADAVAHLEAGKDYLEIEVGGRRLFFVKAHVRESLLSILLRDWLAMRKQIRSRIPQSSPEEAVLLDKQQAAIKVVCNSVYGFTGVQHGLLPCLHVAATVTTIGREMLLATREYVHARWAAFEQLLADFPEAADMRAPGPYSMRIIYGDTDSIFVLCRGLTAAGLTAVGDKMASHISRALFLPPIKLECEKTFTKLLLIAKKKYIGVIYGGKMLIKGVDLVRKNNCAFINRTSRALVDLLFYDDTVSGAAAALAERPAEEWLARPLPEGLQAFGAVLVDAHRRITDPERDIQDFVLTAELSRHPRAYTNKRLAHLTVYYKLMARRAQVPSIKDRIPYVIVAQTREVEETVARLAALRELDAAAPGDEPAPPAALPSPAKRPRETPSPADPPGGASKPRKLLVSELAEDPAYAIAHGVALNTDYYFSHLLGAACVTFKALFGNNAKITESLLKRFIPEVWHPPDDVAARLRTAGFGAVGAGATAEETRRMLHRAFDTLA
VZV polymerase, sequence (P09252 whole entry): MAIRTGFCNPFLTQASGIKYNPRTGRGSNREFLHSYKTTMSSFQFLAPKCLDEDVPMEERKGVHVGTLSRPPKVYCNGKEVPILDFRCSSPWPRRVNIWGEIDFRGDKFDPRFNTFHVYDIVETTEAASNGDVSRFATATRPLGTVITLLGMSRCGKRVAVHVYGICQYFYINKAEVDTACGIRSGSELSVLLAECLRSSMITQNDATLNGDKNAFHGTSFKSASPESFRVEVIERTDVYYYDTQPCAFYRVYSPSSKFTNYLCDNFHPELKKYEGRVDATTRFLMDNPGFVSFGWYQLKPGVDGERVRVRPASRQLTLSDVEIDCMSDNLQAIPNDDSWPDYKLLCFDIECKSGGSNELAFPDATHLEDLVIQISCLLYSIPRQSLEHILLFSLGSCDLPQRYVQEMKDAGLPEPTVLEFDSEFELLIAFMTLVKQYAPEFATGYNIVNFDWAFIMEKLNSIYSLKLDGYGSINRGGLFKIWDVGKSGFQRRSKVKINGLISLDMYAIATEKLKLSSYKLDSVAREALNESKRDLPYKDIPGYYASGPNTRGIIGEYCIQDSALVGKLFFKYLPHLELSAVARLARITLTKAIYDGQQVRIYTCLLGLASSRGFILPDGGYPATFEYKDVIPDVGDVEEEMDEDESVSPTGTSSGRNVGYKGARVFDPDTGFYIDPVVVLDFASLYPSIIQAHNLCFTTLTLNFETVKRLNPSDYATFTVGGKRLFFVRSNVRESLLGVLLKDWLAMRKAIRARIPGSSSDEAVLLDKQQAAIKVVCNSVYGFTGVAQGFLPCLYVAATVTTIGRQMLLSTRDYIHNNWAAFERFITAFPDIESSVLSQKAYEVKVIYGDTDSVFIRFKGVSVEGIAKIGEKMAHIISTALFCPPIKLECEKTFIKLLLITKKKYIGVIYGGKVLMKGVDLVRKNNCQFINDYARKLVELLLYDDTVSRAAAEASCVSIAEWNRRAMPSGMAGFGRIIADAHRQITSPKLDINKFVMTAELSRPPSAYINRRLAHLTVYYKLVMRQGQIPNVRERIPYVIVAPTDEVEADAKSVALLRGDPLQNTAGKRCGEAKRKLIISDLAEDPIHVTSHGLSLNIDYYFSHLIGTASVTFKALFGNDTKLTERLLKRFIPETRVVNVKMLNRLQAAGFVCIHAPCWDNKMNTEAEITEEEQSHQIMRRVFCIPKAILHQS

| Compound | IC50 (HCMV polymerase) [nM] | melting point | IC50 (HSV polymerase) [nM] | IC50 (VZV polymerase) [nM] | inhibition at 20 µM (HCMV polymerase; at 20 μM, read-out: Polymerase HCMV, percent inhibition at the given concentration) [%] |
| --- | --- | --- | --- | --- | --- |
| O=C(NCc1ccc(Cl)cc1)c1cn2c3c(cc(CN4CCOCC4)cc3c1=O)OCCC2 [Example 1, N-(4-Chlorobenzyl)-10-(4-morpholinylmethyl)-8-oxo-3,4-dihydro-2H,8H-[1,4]oxazepino [2,3,4-ij]quinoline-7-carboxamide] | 650 | 195 to 197 °C |  |  |  |
| O=C(NCc1ccc(Cl)cc1)c1cn2c3c(cc(C#CCO)cc3c1=O)CC2CO (stereo not shown) [Example 5, N-(4-Chlorobenzyl)-2-(hydroxymethyl)-8-(3-hydroxy-1-propynyl)-6-oxo-1,2-dihydro-6H-pyrrolo[3,2,1-ij]quinoline-5-carboxamide] | 3200 | 224 to 225 °C |  |  |  |
| CC1(C)Cc2cc(C#CCO)cc3c(=O)c(C(=O)NCc4ccc(Cl)cc4)cn1c23 [Example 6, N-(4-Chlorobenzyl)-8-(3-hydroxyprop-1-ynyl)-2,2-dimethyl-6-oxo-1,2-dihydro-6H-pyrrolo[3,2,1-ij]quinoline-5-carboxamide] | 4000 | 228 °C (dec.) |  |  |  |
| O=C(NCc1ccc(Cl)cc1)c1cc2c3c(cc(CN4CCOCC4)cn3c1=O)CCC2 [Example 7, N-(4-Chlorobenzyl)-6-(morpholin-4-ylmethyl)-3-oxo-9,10dihydro-3H,8H-pyrido[3,2,1-ij]quinoline-2-carboxamide] | 4000 | 200 to 201 °C |  |  |  |
| CC1C(=O)Nc2cc(CN3CCOCC3)cc3c(=O)c(C(=O)NCc4ccc(Cl)cc4)cn1c23 (stereo not shown) [Example 8, N-(4-Chlorobenzyl)-3-methyl-9-(4-morpholinylmethyl)-2,7-dioxo-2,3-dihydro-1H,7H-pyrido[1,2,3-de]quinoxaline-6-carboxamide hydrobromide] | 430 |  | 200 | 90 |  |
| O=C1CCn2cc(C(=O)NCc3ccc(Cl)cc3)c(=O)c3cc(CN4CCOCC4)cc(c32)N1 [Example 9, N-(4-Chlorobenzyl)-10-(4-morpholinylmethyl)-2,8-dioxo-1,2,3,4-tetrahydro-8H-[1,4]diazepino[3,2,1-ij]quinoline-7-carboxamide] | 670 |  | 280 | 170 |  |
| CN1C(=O)Cn2cc(C(=O)NCc3ccc(Cl)cc3)c(=O)c3cc(C#CCO)cc1c32 [Example 11, N-(4-Chlorobenzyl)-9-(3-hydroxy-1-propynyl)-1-methyl-2,7-dioxo-2,3-dihydro-1H,7H-pyrido[1,2,3-de]quinoxaline-6-carboxamide] | 1160 |  |  |  |  |
| CN1COc2cc(C#CCO)cc3c(=O)c(C(=O)NCc4ccc(Cl)cc4)cn1c23 [Example 15, N-(4-Chlorobenzyl)-9-(3-hydroxyprop-1-ynyl)-3-methyl-7-oxo-2,3-dihydro-7H-[1,3,4]oxadiazino[6,5,4-ij]quinoline-6-carboxamide] | 4190 | 231 to 233 °C |  |  |  |
| CN1CCc2cc(C#CCO)cc3c(=O)c(C(=O)NCc4ccc(Cl)cc4)cn1c23 [Example 16, N-(4-Chlorobenzyl)-5-(3-hydroxyprop-1-ynyl)-1-methyl-7-oxo-2,3-dihydro-1H,7H-pyrido[3,2,1-ij]cinnoline-8-carboxamide] | 7950 | 165 to 167 °C |  |  |  |

Further lines, results first:

| IC50 (HCMV polymerase) [nM] | melting point | IC50 (HSV polymerase) [nM] | IC50 (VZV polymerase) [nM] | inhibition at 20 µM (HCMV polymerase; at 20 μM, read-out: Polymerase HCMV, percent inhibition at the given concentration) [%] | Compound |
| --- | --- | --- | --- | --- | --- |
| 770 |  | 740 | 520 |  | O=C(NCc1ccc(Cl)cc1)c1cn2c(=O)[nH]c3cc(CN4CCOCC4)cc(c1=O)c32 [Example 2, N-(4-Chlorobenzyl)-8-(4-morpholinylmethyl)-2,6-dioxo-1,2-dihydro-6H-imidazo[4,5,1-ij]quinoline-5-carboxamide] |
| 140 |  | < 510 | 60 |  | O=C1Cn2cc(C(=O)NCc3ccc(Cl)cc3)c(=O)c3cc(CN4CCOCC4)cc(c32)N1 [Example 3, N-(4-Chlorobenzyl)-9-(4-morpholinylmethyl)-2,7-dioxo-2,3-dihydro-1H,7H-pyrido[1,2,3-de]quinoxaline-6-carboxamide] |
| 160 |  |  | 180 |  | O=C(NCc1ccc(Cl)cc1)c1cn2c3c(cc(CN4CCOCC4)cc3c1=O)N=C(NCc1ccc(Cl)cc1)C2 [Example 4, N-(4-Chlorobenzyl)-2-[(4-chlorobenzyl)amino]-9-(4-morpholinylmethyl)-7-oxo-3H,7H-pyrido[1,2,3-de]quinoxaline-6-carboxamide] |
| 310 | 235 to 240 °C | 310 | 120 |  | O=C(NCc1ccc(Cl)cc1)c1cn2c3c(cc(CN4CCOCC4)cc3c1=O)N=C(NCc1ccccc1)C2 [Example 10, 2-(Benzylamino)-N-(4-chlorobenzyl)-9-(4-morpholinylmethyl)-7-oxo-3H,7H-pyrido[1,2,3-de]quinoxaline-6-carboxamide] |
| 1670 |  |  |  |  | O=C(NCc1ccc(Cl)cc1)c1cn2c3c(cc(CN4CCOCC4)cc3c1=O)CN(Cc1ccccc1)C2 [Example 12, 2-Benzyl-N-(4-chlorobenzyl)-9-(4-morpholinylmethyl)-7-oxo-2,3-dihydro-1H,7H-pyrido[3,2,1-ij]quinazoline-6-carboxamide] |
|  |  |  |  | 39 | O=C(NCc1ccc(Cl)cc1)c1cn2c3c(cc(CN4CCOCC4)cc3c1=O)CN(Cc1ccccc1)C2=O [Example 13, 2-Benzyl-N-(4-chlorobenzyl)-9-(4-morpholinylmethyl)-3,7-dioxo-2,3-dihydro-1H,7H-pyrido[3,2,1-ij]quinazoline-6-carboxamide] |
| 6000 |  |  |  |  | O=C(NCc1ccc(Cl)cc1)c1cn2c3c(cc(CN4CCOCC4)cc3c1=O)CN(Cc1ccccc1)C(=O)C2 [Example 14, 2-Benzyl-N-(4-chlorobenzyl)-10-(4-morpholinylmethyl)-3,8-dioxo-1,2,3,4-tetrahydro-8H-[1,4]diazepino[6,7,1-ij]quinoline-7-carboxamide] |
